Data on 17 compounds can be found in PubChem BioAssay (NCI).

Several values for one entry are separate records, joined by “and”; a condition that tells them apart may be missing. Equal entries are not always repeated.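 Briefly, cells in 96-well plates were exposed to five compound concentrations for 48 h, and endpoints were estimated by linear interpolation. GI50 = concentration required for 50% inhibition of growth. The concentration for full growth arrest is given as TGI.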 A value given as a limit tells only on which side of the number the result lay.

The first assay relates to HS 578T breast. The assay can be described thus: growth of human tumour cells (NCI), 48 h.
`COc1cc(N2C(=O)[C@H](O)C2c2ccc(SC)cc2)cc(OC)c1OC` (stereo partly specified): the GI50 was below 0.01 µM and the TGI is above 100 µM.

Take `O=C1OCC2=C1C(c1ccc(Cl)c(Cl)c1)c1cc3c(cc1N2CCO)OCCO3` (stereo unspecified): the GI50 is 0.273 µM and the TGI was above 37.6 µM.

For `O=C1c2ccccc2-c2cc([N+](=O)[O-])c([N+](=O)[O-])cc21`, the TGI was above 100 µM.

`O=C(/C=C/c1cc2ccccc2[nH]c1=O)/C=C/c1cc2ccccc2[nH]c1=O`: the GI50 was above 39.9 µM and the TGI was above 100 µM.

In the case of `Nc1nc(OCc2ccccc2)c2[nH]cnc2n1`, the GI50 was 18.9 µM and 18.3 µM; the TGI was 49.5 µM and 57.5 µM.

As for `Fc1ccc(/C=N/n2c(-c3ccc(F)c(Cl)c3)nn(CNc3ccccc3C(F)(F)F)c2=S)cc1`, the GI50 was 45.2 µM and the TGI is above 100 µM.

For the compound `CN[C@@H](C)C(=O)N[C@H](C(=O)N1CCC[C@H]1C(=O)Nc1sc(-c2ncco2)nc1-c1ccccc1)C1CCCCC1`, the GI50 is 50 µM and the TGI was above 100 µM.

With `CC1=C2[C@@H](CC1)[C@]1(C)O[C@@](c3ccccc3)(C[C@H]1OC(=O)CO)[C@H]2OC(=O)/C=C/c1ccccc1`, the GI50 is 0.0309 µM and the TGI turned out to be 0.961 µM.

As to `CO/N=C(\COc1ccc2c(c1)[nH]c1ccccc12)c1ccc(F)cc1`, the GI50 is 23.4 µM and the TGI is above 100 µM.

With `C1CCC([PH+](C2CCCCC2)C2CCCCC2[PH+](C2CCCCC2)C2CCCCC2)CC1.[Au].[CH-]1CCCCC1CC1CCCC[N-]1` (stereo unspecified), the GI50 was 0.276 µM and the TGI amounted to 1.69 µM.

Take `COc1cc2c3c(n(C)c(=O)c2cc1OC)-c1cc2c(cc1/C3=C\CCCCN1C(=O)c3ccccc3C1=O)OCO2`: the GI50 was 26.5 µM and the TGI is above 100 µM.

As to `N#Cc1c(N2CCOCC2)nc(=S)[nH]c1-c1ccco1`, the GI50 was 2.08 µM and the TGI is 17.3 µM.

Consider `NNC(=O)CS(=O)(=O)Nc1ncccn1`, for which the TGI is above 100 µM.

Regarding `O=C1NC(=O)C(N2C(=O)c3ccccc3C2=O)CC1O` (stereo unspecified), the GI50 was above 100 µM and the TGI is above 100 µM.

`COc1cc2c(cc1C1COc3cc4occc4cc3C1=O)OCO2` (stereo unspecified) returned a TGI of 89.8 µM.

In the case of `CCOC(=O)C1=C(C)N(c2ccc(Cl)cc2)[C@]2(C#N)C(O)=C(Cl)C(Cl)=C(O)[C@]12C#N`, the GI50 is above 100 µM and the TGI was above 100 µM.

Take `O=C1/C(=C/c2ccccc2[N+](=O)[O-])Cc2ccccc21`: the GI50 was 3.7 µM and the TGI was above 100 µM.

The next assay deals with SF-295 CNS. Put plainly: growth of human tumour cells (NCI), 48 h.
As to `COc1cc(N2C(=O)[C@H](O)C2c2ccc(SC)cc2)cc(OC)c1OC` (stereo partly specified), the GI50 was below 0.01 µM and the TGI amounted to 26.1 µM.

For the compound `O=C1OCC2=C1C(c1ccc(Cl)c(Cl)c1)c1cc3c(cc1N2CCO)OCCO3` (stereo unspecified), the GI50 was 0.151 µM and the TGI is 2.84 µM.

As to `O=C1c2ccccc2-c2cc([N+](=O)[O-])c([N+](=O)[O-])cc21`, the TGI came to 3.08 µM.

`O=C(/C=C/c1cc2ccccc2[nH]c1=O)/C=C/c1cc2ccccc2[nH]c1=O`: the GI50 is above 25.3 µM and the TGI is above 86.2 µM.

With `Nc1nc(OCc2ccccc2)c2[nH]cnc2n1`, the GI50 was 35.2 µM and 24.1 µM; the TGI is 395 µM and 118 µM.

As for `Fc1ccc(/C=N/n2c(-c3ccc(F)c(Cl)c3)nn(CNc3ccccc3C(F)(F)F)c2=S)cc1`, the GI50 was 42.6 µM and the TGI was above 100 µM.

As to `CN[C@@H](C)C(=O)N[C@H](C(=O)N1CCC[C@H]1C(=O)Nc1sc(-c2ncco2)nc1-c1ccccc1)C1CCCCC1`, the GI50 was 52.9 µM and the TGI is above 100 µM.

Take `CC1=C2[C@@H](CC1)[C@]1(C)O[C@@](c3ccccc3)(C[C@H]1OC(=O)CO)[C@H]2OC(=O)/C=C/c1ccccc1`: the GI50 was 12.8 µM and the TGI was found to be 31.7 µM.

As for `CO/N=C(\COc1ccc2c(c1)[nH]c1ccccc12)c1ccc(F)cc1`, the GI50 is 30.1 µM and the TGI is above 100 µM.

For the compound `C1CCC([PH+](C2CCCCC2)C2CCCCC2[PH+](C2CCCCC2)C2CCCCC2)CC1.[Au].[CH-]1CCCCC1CC1CCCC[N-]1` (stereo unspecified), the GI50 is 0.305 µM and the TGI was 1.28 µM.

For the compound `COc1cc2c3c(n(C)c(=O)c2cc1OC)-c1cc2c(cc1/C3=C\CCCCN1C(=O)c3ccccc3C1=O)OCO2`, the GI50 is 11 µM and the TGI came to 68.1 µM.

Take `NNC(=O)CS(=O)(=O)Nc1ncccn1`: the TGI was above 100 µM.

Take `O=C1NC(=O)C(N2C(=O)c3ccccc3C2=O)CC1O` (stereo unspecified): the GI50 was above 100 µM and the TGI is above 100 µM.

The compound `COc1cc2c(cc1C1COc3cc4occc4cc3C1=O)OCO2` (stereo unspecified) had a TGI above 100 µM.

Turning to `CCOC(=O)C1=C(C)N(c2ccc(Cl)cc2)[C@]2(C#N)C(O)=C(Cl)C(Cl)=C(O)[C@]12C#N`, the GI50 is above 100 µM and the TGI is above 100 µM.

In another assay the test system is HT29 colon. Put plainly: growth of human tumour cells (NCI), 48 h.
On to `COc1cc(N2C(=O)[C@H](O)C2c2ccc(SC)cc2)cc(OC)c1OC` (stereo partly specified), for which the GI50 was below 0.01 µM and the TGI is 0.0887 µM.

As to `O=C1OCC2=C1C(c1ccc(Cl)c(Cl)c1)c1cc3c(cc1N2CCO)OCCO3` (stereo unspecified), the GI50 was 0.148 µM and the TGI worked out at 0.502 µM.

As for `O=C1c2ccccc2-c2cc([N+](=O)[O-])c([N+](=O)[O-])cc21`, the TGI came to 3.87 µM.

Turning to `Nc1nc(OCc2ccccc2)c2[nH]cnc2n1`, the GI50 is 45.8 µM and 39.9 µM; the TGI was 400 µM and 175 µM.

Consider `Fc1ccc(/C=N/n2c(-c3ccc(F)c(Cl)c3)nn(CNc3ccccc3C(F)(F)F)c2=S)cc1`, for which the GI50 was 94.4 µM and the TGI is above 100 µM.

Turning to `CN[C@@H](C)C(=O)N[C@H](C(=O)N1CCC[C@H]1C(=O)Nc1sc(-c2ncco2)nc1-c1ccccc1)C1CCCCC1`, the GI50 is 28.6 µM and the TGI stood at 68.6 µM.

As for `CC1=C2[C@@H](CC1)[C@]1(C)O[C@@](c3ccccc3)(C[C@H]1OC(=O)CO)[C@H]2OC(=O)/C=C/c1ccccc1`, the GI50 was 15.1 µM and the TGI worked out at 34.1 µM.
